System: strain 168-PR containing the plasmid PHT01-P43D-GFP
Test: Specificity (orthogonality) of pyruvate biosensor towards inducing agents
Type: cell-based, Bacillus subtilis
Conditions: 5 g of inducing agent added to the medium; strain 168-PR with PHT01-P43D-GFP
Protocol: 2. Detection method for Relative fluorescence intensity: The strain to be determined for the fluorescence intensity is streaked into LB solid medium containing chloramphenicol (5 μg/mL) in a plate. Single colonies are picked up and inoculated into LB liquid medium and incubated at 37° C. and 220 rpm for 12 h. Then the cell suspension is inoculated into 200 μL of LB liquid medium in a 96-well fluorescent microplate in an amount of 2% (V/V), and incubated at 37° C. and 900 rpm. The microplate is removed at different times, and the fluorescence intensity (excitation light: 488 nm, absorption light: 520 nm) and cell density (600 nm) are determined on the Cytation microplate reader (BioTek).

SMILES	induction of the activity of the pyruvate biosensor
CC(C)S[C@@H]1O[C@H](CO)[C@H](O)[C@H](O)[C@H]1O [IPTG]	only pyruvate can significantly induce
CC(=O)O [acetic acid]	only pyruvate can significantly induce
O=C[C@H](O)[C@@H](O)[C@H](O)CO [xylose]	only pyruvate can significantly induce
O=C(O)CCC(=O)C(=O)O [α-ketoglutaric acid]	only pyruvate can significantly induce
CC(=O)C(C)O (stereo not shown) [acetoin]	only pyruvate can significantly induce
O=C[C@@H](O)[C@H](O)[C@H](O)CO [arabinose]	only pyruvate can significantly induce
C[C@H](N)C(=O)O [alanine]	only pyruvate can significantly induce
OC[C@H]1O[C@@H](O[C@H]2[C@H](O)[C@@H](O)C(O)O[C@@H]2CO)[C@H](O)[C@@H](O)[C@H]1O (stereo partly shown) [lactose]	only pyruvate can significantly induce
CC(O)C(=O)O (stereo not shown) [lactic acid]	only pyruvate can significantly induce
O=C(O)[C@@H](O)[C@@H](O)[C@H](O)[C@@H](O)C(=O)O [glucaric acid]	only pyruvate can significantly induce

From US11697818B2, “Pyruvate-responsive biosensor, and construction method and use thereof” (priority 2020, dated 2023)
